Reference: patent publication US20240043842A1, “MUSCLE RETENTION IN AGING AND DUCHENNE MUSCULAR DYSTROPHY (DMD) THROUGH S1P INHIBITION” (Washington University, priority 2022, published 2024)

Key:
C2C12 cells [1] = test: Western blot of phosphorylated Smad 2 and AKT in TGF-β1-treated C2C12 cells; type: cell-based, murine; conditions: TGF-β1-treated versus untreated cells, whole-cell lysates
Procedure: (§1) C2C12 cells were plated onto 6-well plates at a 2×10^5 density and 24 h later transfected with either negative control siRNA (Negative Control No. 1 siRNA, Life Technologies) or custom siRNAs targeting S1P (Silencer Select siRNAs, Life Technologies) using Lipofectamine RNAiMAX as per manufacturer's instructions. After 48 h, cells were either harvested for gene expression analysis or differentiated with DMEM supplemented with 2% horse serum. Two days after differentiation, cells were harvested for gene expression analysis. For TGF-β1 treatment studies, three days post-differentiation, cells were treated with 50 ng/ml TGF-β1 (R&D) for 5 h then harvested for downstream endpoints.
Skeletal muscle whole protein lysates were generated by homogenizing tissues in lysis buffer (20 mM Tris, 15 mM NaCl, 1 mM EDTA, 0.2% NP-40, and 10% glycerol) supplemented with 2× Protease Complete cocktail tablet (Roche) and 1× Phosphatase Inhibitors (Roche, Mannheim, Germany) with stainless steel beads in a TissueLyzer II (Qiagen). Protein lysates were rotated for 45 min at 4° C., followed by centrifugation at 15,000×g for 15 min at 4° C. Protein was quantified by bicinchoninic acid assay (BCA, Pierce Biotechnology), equal amounts of protein were resolved on a 4-15 SDS-PAGE gradient gel (Bio-Rad), and transferred to PVDF-FL membrane (MilliporeSigma). […]

C2C12 cells [2] = test: MSS51 expression by qPCR in C2C12 cells treated with vehicle or TGF-β1; type: cell-based, murine; conditions: scrambled and S1P-depleted C2C12 cells, 50 ng/ml for 5 h, versus vehicle
Procedure: Total RNA was isolated from C2C12 cells, skeletal muscle, heart, adipose, kidney, and liver with RNA STAT-60 (Tel-Test Inc) as per manufacturer's instructions. For tissues, RNA was isolated by disrupting tissue in RNA STAT-60 using […] (Qiagen) and a TissueLyser II (Qiagen). RNA was reverse transcribed into cDNA using the High-Capacity cDNA Reverse Transcription Kit (Applied Biosystems). Quantitative real-time PCR was performed using Power SYBR green (Applied Biosystems) and transcripts quantified on an ABI QuantiStudio 3 sequence detection system (Applied Biosystems). Data was normalized to 36B4 expression, unless otherwise noted, and results analyzed using the 2^−ΔΔCt method and reported as relative units to controls.
as §1, with “For TGF-β1 treatment studies, three days post-differentiation, cells were treated with 50 ng/ml TGF-β1 (R&D) for 5 h then harvested for downstream endpoints.” left out

TGF-β1: recombinant TGF-β1 (R&D) used to treat C2C12 cells
Smad 2 phosphorylation induced by TGF-β1 (C2C12 cells [1]): induced
MSS51 expression in the presence of TGF-β1 (C2C12 cells [2]): increased
